Reference: patent US11040981B2, “Pyrrolotriazine compounds and methods of inhibiting TAM kinases” (Syros Pharmaceuticals, Inc., priority 2017, dated 2021)
pIC50: −log10 of the molar value.

What was measured:
[1] = target: T1, AXL (Homo sapiens, UniProt P30530); assay: TR-FRET kinase activity assay, AXL; assay type: biochemical; conditions: ATP at Km, 60 minutes
T1 sequence (P30530 26-894): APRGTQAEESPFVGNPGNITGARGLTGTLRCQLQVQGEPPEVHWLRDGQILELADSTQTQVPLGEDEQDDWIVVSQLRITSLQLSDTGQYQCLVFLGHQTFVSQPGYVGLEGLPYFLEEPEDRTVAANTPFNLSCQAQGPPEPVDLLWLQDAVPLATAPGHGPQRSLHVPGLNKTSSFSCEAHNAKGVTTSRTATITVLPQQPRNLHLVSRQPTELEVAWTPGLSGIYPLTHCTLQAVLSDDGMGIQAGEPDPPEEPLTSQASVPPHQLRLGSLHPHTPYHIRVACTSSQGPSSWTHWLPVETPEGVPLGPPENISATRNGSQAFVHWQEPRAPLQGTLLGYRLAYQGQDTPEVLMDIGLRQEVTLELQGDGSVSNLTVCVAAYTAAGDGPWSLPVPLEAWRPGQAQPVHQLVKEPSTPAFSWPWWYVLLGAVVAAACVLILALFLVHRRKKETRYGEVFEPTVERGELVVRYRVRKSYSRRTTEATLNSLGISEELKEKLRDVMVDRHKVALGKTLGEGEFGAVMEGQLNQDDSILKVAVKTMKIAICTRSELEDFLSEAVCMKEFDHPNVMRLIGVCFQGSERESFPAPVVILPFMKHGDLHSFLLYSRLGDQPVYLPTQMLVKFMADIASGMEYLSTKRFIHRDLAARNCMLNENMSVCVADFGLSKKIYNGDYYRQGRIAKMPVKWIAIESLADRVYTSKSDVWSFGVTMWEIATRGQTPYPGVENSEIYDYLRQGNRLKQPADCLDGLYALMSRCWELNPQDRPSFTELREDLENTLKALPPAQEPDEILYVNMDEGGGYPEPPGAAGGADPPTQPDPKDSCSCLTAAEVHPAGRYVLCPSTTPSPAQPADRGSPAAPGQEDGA
How it was run: (§1)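 IC50 reflects the drop in TR-FRET between Eu anti-phosphotyrosine antibody and labelled peptide after a 60-minute room-temperature reaction. Buffer was 50 mM HEPES pH 7.5 with 10 mM MgCl2, 1 mM EGTA, 0.01% Brij 35 and 1 mM DTT, with ATP at Km per enzyme and EDTA quench.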

[2] = target: T2, FLT3 (Homo sapiens, UniProt P36888); assay: TR-FRET kinase activity assay, FLT3; assay type: biochemical; conditions: ATP at Km, 60 minutes
T2 sequence (P36888 27-993): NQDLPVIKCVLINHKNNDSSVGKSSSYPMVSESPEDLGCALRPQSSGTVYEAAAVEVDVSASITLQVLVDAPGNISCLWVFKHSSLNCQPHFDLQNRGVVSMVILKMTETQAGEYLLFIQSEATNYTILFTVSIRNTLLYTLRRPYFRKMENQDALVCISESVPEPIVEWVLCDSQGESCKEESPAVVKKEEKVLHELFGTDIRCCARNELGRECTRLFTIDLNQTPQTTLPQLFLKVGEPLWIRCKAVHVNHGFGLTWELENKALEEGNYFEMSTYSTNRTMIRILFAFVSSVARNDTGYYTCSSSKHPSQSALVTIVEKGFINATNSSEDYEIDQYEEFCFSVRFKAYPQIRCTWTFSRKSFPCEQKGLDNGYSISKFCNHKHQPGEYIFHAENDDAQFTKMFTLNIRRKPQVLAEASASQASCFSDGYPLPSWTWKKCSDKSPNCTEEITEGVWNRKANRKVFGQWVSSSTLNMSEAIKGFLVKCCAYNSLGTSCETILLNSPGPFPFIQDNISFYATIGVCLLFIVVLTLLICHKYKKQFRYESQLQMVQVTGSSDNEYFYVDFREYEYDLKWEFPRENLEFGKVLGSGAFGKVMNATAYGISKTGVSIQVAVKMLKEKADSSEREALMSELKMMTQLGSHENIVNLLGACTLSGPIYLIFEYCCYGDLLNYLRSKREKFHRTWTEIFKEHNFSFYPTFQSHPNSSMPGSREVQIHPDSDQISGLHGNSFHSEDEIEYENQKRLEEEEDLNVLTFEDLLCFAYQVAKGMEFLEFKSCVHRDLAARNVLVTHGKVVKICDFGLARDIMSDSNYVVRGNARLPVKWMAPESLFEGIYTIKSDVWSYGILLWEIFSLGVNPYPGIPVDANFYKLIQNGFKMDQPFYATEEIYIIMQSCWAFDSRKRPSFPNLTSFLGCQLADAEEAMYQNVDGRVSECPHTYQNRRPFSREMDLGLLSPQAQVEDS
How it was run: as §1

Compound	pIC50 [1]	pIC50 [2]
COC[C@H](C)Nc1ncc2c(-c3ccc(C(C)(C)C(=O)N4CCOCC4)s3)cc([C@H]3CC[C@H](O)CC3)n2n1 [Compound 460]	≥ 7.00	≥ 7.00
COC[C@H](C)Nc1ncc2c(C3=C[C@@H]4CC[C@H](C3)N4)cc([C@H]3CC[C@H](O)CC3)n2n1 [Compound 461]	≥ 7.00	5.00 to 6.00
COC[C@H](C)Nc1ncc2c(C3=C[C@@H]4CC[C@H](C3)N4C(C)=O)cc([C@H]3CC[C@H](O)CC3)n2n1 [Compound 462]	≥ 7.00	6.00 to 7.00
COC[C@H](C)Nc1ncc2c(C3=C[C@@H]4CC[C@H](C3)N4C(=O)N3CCOCC3)cc([C@H]3CC[C@H](O)CC3)n2n1 [Compound 463]	≥ 7.00	6.00 to 7.00
COC[C@H](C)Nc1ncc2c(-c3cccc(N4C[C@H]5COC[C@H]5C4)c3)cc([C@H]3CC[C@H](O)CC3)n2n1 [Compound 464]	≥ 7.00	6.00 to 7.00
COC[C@H](C)Nc1ncc2c(C3=C[C@@H]4CC[C@H](C3)N4C)cc([C@H]3CC[C@H](O)CC3)n2n1 [Compound 465]	≥ 7.00	5.00 to 6.00
COC[C@H](C)Nc1ncc2c(-c3cnn(C(C)(C)C(=O)N4CCN(C)CC4)c3)cc([C@H]3CC[C@H](O)CC3)n2n1 [Compound 466]	≥ 7.00	5.00 to 6.00
COC[C@H](C)Nc1ncc2c(C3=C[C@H]4CC[C@@H](C3)N4)cc([C@H]3CC[C@H](O)CC3)n2n1 [Compound 467]	≥ 7.00	5.00 to 6.00
COC[C@H](C)Nc1ncc2c(C3=C[C@H]4CCC(C3)N4C(C)=O)cc([C@H]3CC[C@H](O)CC3)n2n1 [Compound 468]	≥ 7.00	6.00 to 7.00
COC[C@H](C)Nc1ncc2c(C3=C[C@H]4CC[C@@H](C3)N4C(=O)N3CCOCC3)cc([C@H]3CC[C@H](O)CC3)n2n1 [Compound 469]	≥ 7.00	6.00 to 7.00
COC[C@H](C)Nc1ncc2c(-c3cnn([C@H]4CCN(C)C4=O)c3)cc([C@H]3CC[C@H](O)CC3)n2n1 [Compound 470]	≥ 7.00	6.00 to 7.00
COC[C@H](C)Nc1ncc2c(-c3cnn([C@@H]4CCN(C)C4=O)c3)cc([C@H]3CC[C@H](O)CC3)n2n1 [Compound 471]	≥ 7.00	5.00 to 6.00
COC[C@H](C)Nc1ncc2c(-c3cnn(C[C@@H]4CC(=O)N(C)C4)c3)cc([C@H]3CC[C@H](O)CC3)n2n1 [Compound 473]	≥ 7.00	6.00 to 7.00
COC[C@H](C)Nc1ncc2c(-c3cnn(C[C@@H]4CCO4)c3)cc([C@H]3CC[C@H](O)CC3)n2n1 [Compound 474]	≥ 7.00	6.00 to 7.00
COC[C@H](C)Nc1ncc2c(-c3cnn(C[C@H]4CC(=O)N(C)C4)c3)cc([C@H]3CC[C@H](O)CC3)n2n1 [Compound 475]	≥ 7.00	6.00 to 7.00
COC[C@H](C)Nc1ncc2c(-c3cnn(C[C@@H]4CCO4)c3)cc([C@H]3CC[C@H](O)CC3)n2n1 [Compound 478]	≥ 7.00	5.00 to 6.00
COC[C@H](C)Nc1ncc2c(-c3ccnc(N4Cc5nc(C)sc5C4)c3)cc([C@H]3CC[C@H](O)CC3)n2n1 [Compound 479, (trans)-4-(2-(((S)-1-methoxypropan-2-yl)amino)-5-(2-(2-methyl-4H-pyrrolo[3,4-d]thiazol-5(6H)-yl)pyridin-4-yl)pyrrolo[2,1-f][1,2,4]triazin-7-yl)cyclohexanol]	≥ 7.00	5.00 to 6.00
COC[C@H](C)Nc1ncc2c(-c3ccnc(N4CCOC5(COC5)C4)c3)cc([C@H]3CC[C@H](O)CC3)n2n1 [Compound 480]	≥ 7.00	6.00 to 7.00
COC[C@H](C)Nc1ncc2c(C#N)cc([C@H]3CC[C@H](O)CC3)n2n1 [Compound 481]	5.00 to 6.00	5.00 to 6.00

Compound	pIC50 [1]	pIC50 [2]
COC[C@H](C)Nc1ncc2c([C@H]3CC[C@@H](C(=O)N4CCOCC4)CC3)cc([C@H]3CC[C@H](O)CC3)n2n1 [Compound 484]	6.00 to 7.00	5.00 to 6.00
COC[C@H](C)Nc1ncc2c(C3=C[C@@H]4CC[C@H](C3)N4CC(F)(F)F)cc([C@H]3CC[C@H](O)CC3)n2n1 [Compound 485]	≥ 7.00	6.00 to 7.00
COC[C@H](C)Nc1ncc2c(-c3ccnc(N4CCN(C5COC5)CC4)c3)cc([C@H]3CC[C@H](O)CC3)n2n1 [Compound 486]	≥ 7.00	5.00 to 6.00
COC[C@H](C)Nc1ncc2c(-c3ccnc(N4CCN(S(=O)(=O)C(F)(F)F)CC4)c3)cc([C@H]3CC[C@H](O)CC3)n2n1 [Compound 487]	6.00 to 7.00	5.00 to 6.00
COC[C@H](C)Nc1ncc2c(-c3cnn(C(C)(C)C(=O)N4CCOCC4)c3)cc(C3CCc4[nH]ncc4C3)n2n1 (some centres unmarked) [Compound 488]	≥ 7.00	6.00 to 7.00
C[C@@H](CC(F)F)Nc1ncc2c(-c3ccc(S(C)(=O)=O)nc3)cc([C@H]3CC[C@H](O)CC3)n2n1 [Compound 489]	≥ 7.00	≥ 7.00
COC[C@H](C)Nc1ncc2c(-c3ccnc(Oc4cccnc4)c3)cc([C@H]3CC[C@H](O)CC3)n2n1 [Compound 490]	≥ 7.00	6.00 to 7.00
COC[C@H](C)Nc1ncc2c(-c3ccnc(N4CCN(S(=O)(=O)C5CC5)CC4)c3)cc([C@H]3CC[C@H](O)CC3)n2n1 [Compound 491]	≥ 7.00	6.00 to 7.00
COC[C@H](C)Nc1ncc2c(C3=C[C@H]4CC[C@@H](C3)N4CC(F)(F)F)cc([C@H]3CC[C@H](O)CC3)n2n1 [Compound 492]	≥ 7.00	5.00 to 6.00
COC[C@H](C)Nc1ncc2c(-c3ccnc(N4CCC5(COC5)C4)c3)cc([C@H]3CC[C@H](O)CC3)n2n1 [Compound 493]	≥ 7.00	6.00 to 7.00
COC[C@H](C)Nc1ncc2c(C3=C[C@H]4CC[C@@H](C3)N4C)cc([C@H]3CC[C@H](O)CC3)n2n1 [Compound 494]	≥ 7.00	5.00 to 6.00
COC[C@H](C)Nc1ncc2c(-c3cnn(C(C)(C)C(=O)N4Cc5nc(C)sc5C4)c3)cc([C@H]3CC[C@H](O)CC3)n2n1 [Compound 495]	≥ 7.00	5.00 to 6.00
COC[C@H](C)Nc1ncc2c(-c3cnn(C(C)(C)C(=O)C4CCc5sc(C)nc5C4)c3)cc([C@H]3CC[C@H](O)CC3)n2n1 (some centres unmarked) [Compound 496]	≥ 7.00	5.00 to 6.00
COC[C@H](C)Nc1ncc2c(CC#N)cc([C@H]3CC[C@H](O)CC3)n2n1 [Compound 497]	6.00 to 7.00	5.00 to 6.00
COC[C@H](C)Nc1ncc2c(-c3cccc(C4CCc5nc(C)[nH]c5C4)c3)cc([C@H]3CC[C@H](O)CC3)n2n1 (some centres unmarked) [Compound 498]	≥ 7.00	6.00 to 7.00
C[C@@H](CC(F)(F)F)Nc1ncc2c(C3=C[C@@H]4CC[C@H](C3)N4)cc([C@H]3CC[C@H](O)CC3)n2n1 [Compound 499]	≥ 7.00	6.00 to 7.00
COC[C@H](C)Nc1ncc2c(-c3ccnc(N4CCN(C(=O)C5COC5)CC4)c3)cc([C@H]3CC[C@H](O)CC3)n2n1 [Compound 500]	≥ 7.00	6.00 to 7.00
COC[C@H](C)Nc1ncc2c(-c3cnn(C4COC4)c3)cc(-c3ccc(O)nc3)n2n1 [Compound 501]	6.00 to 7.00	5.00 to 6.00
